From the METLIN SMRT retention time set (Domingo-Almenara et al. 2019) come the findings set out here.

This series in a line: gradient 5% acetonitrile 3 min, to 50% in 2 min, to 85% in 15 min, held 3 min, 100 µL/min. The conditions noted are these: column: Zorbax Extend-C18 2.1 x 50 mm; eluents: water / acetonitrile, 0.1% formic acid. The method, boiled down:
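Retention times of pure standards were taken from adduct peaks that were selected by computer and manually inspected. Over 3 months, mixtures of ~100 molecules were run by HPLC–quadrupole time-of-flight mass spectrometry in positive and negative ionization mode. The Zorbax Extend-C18 column (2.1 × 50 mm, 1.8 μm) ran at 100 μL/min in water and acetonitrile, each containing 0.1% formic acid, with 40 μL dead volume and 900 μL dwell volume.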
On to `Cc1ccc2c(c1)c1nc3ccccc3nc1n2CC(=O)O`, for which the RP-LC retention time turned out to be 721 s.
In turn, `CCCc1sc(Nc2ccccc2OCC)nc1-c1ccc(Cl)c(Cl)c1` returned an RP-LC retention time of 1030 s.
In the case of `O=C(C(c1ccccc1)n1cccc1)N1CCCC1` (stereo unspecified), the RP-LC retention time was found to be 782 s.
For the molecule `COc1cccc(CNC(=O)N2CCC(N3CCN(Cc4ccccc4)C(=O)C3=O)CC2)c1`, the RP-LC retention time was found to be 698 s.
`Nc1c(C(=O)Nc2ccc([N+](=O)[O-])cc2)oc2ccccc12`: the RP-LC retention time was found to be 880 s.
`COCCN1CCC2(CC1)CN(Cc1ccc(OC)c(C)c1)Cc1ccccc1O2`: the RP-LC retention time worked out at 598 s.
As for `Cc1cccc(S(=O)(=O)Nc2ccc(-c3cn4ccc(C)nc4n3)cc2)c1`, the RP-LC retention time was found to be 659 s.
Turning to `NC(=O)Cc1csc(NC(=O)c2csc(Nc3ccc(OC(F)F)cc3)n2)n1`, the RP-LC retention time worked out at 688 s.
`CCn1ncc(NC(=O)COc2ccc(F)cc2)c(N2CCOCC2)c1=O` had an RP-LC retention time of 821 s.
With `O=C(Nc1cc(F)cc(F)c1)c1c(O)c2cccnc2n(-c2ccccc2)c1=O`, the RP-LC retention time was 709 s.
`CC(=O)Nc1ccc(OCC(O)CN2CCC(Cc3ccccc3)CC2)cc1` (stereo unspecified) yielded an RP-LC retention time of 577 s.
As to `COc1ccc(NC(=O)c2cnc(-c3ccc(F)cc3)nc2-c2ccncc2)cc1`, the RP-LC retention time turned out to be 856 s.
Molecule `O=S(=O)(c1ccc2c(c1)CCC2)N1CCc2nc(-c3ccc(F)cc3)ncc2C1` returned an RP-LC retention time of 1220 s.
Next, `COCCN1C(=O)[C@H]2CN(Cc3ccc(OC(F)(F)F)cc3)C[C@H]2C1=O`: 694 s; `CCn1c(CCC(=O)NCc2cccc(F)c2)nc2ccccc2c1=O`: 700 s.
As for `Cc1cc(NS(=O)(=O)c2ccc3c(c2)C(=O)N(C)c2ncccc2O3)ccc1F`, the RP-LC retention time was 951 s.
The molecule `CCc1ccc(-n2nnc(C(=O)N3CCC4(CC3)OCCO4)c2-c2ccncc2)cc1` displayed an RP-LC retention time of 766 s.
In turn, `COC(=O)C1=CN(c2ccc(F)cc2)c2ccccc2S1(=O)=O` displayed an RP-LC retention time of 790 s.
`COc1ccc(-c2nc3cnccn3c2Nc2ccc3c(c2)OCO3)cc1OC`: the RP-LC retention time came to 672 s.
Next, `CCN1C(=O)CCc2cc(NC(=O)c3ccn(CC)n3)ccc21`: 701 s; `Cc1cc(=O)n(CC(=O)Nc2ccc(Br)cc2)c(N)n1`: 609 s; `O=C(NCc1ccco1)C1CCN(Cc2cc3ccccc3n2Cc2cccc(Cl)c2)CC1`: 853 s.
As to `CCc1nc2cc(N3CCCC(C(=O)NCc4cccnc4)C3)cnc2nc1CC` (stereo unspecified), the RP-LC retention time stood at 600 s.
Consider `COc1ccc(CCn2nnnc2C2(c3ccc(C)cc3)CC2)cc1`, for which the RP-LC retention time was found to be 1150 s.
Molecule `COc1cc(NS(=O)(=O)c2cc3n(c2)CCN(C(C)C)C3=O)cc(OC)c1` yielded an RP-LC retention time of 748 s.
As to `CC(C)C(=O)NCC12CCCC=C1N(C)C(=O)CC2` (stereo unspecified), the RP-LC retention time is 660 s.
In the case of `COc1ccc(OC)c(S(=O)(=O)N2CCc3nc[nH]c3C2)c1`, the RP-LC retention time turned out to be 554 s.
As to `Cc1ccc(S(=O)(=O)Nc2cccc(-c3nc4ncccn4c3C)c2)cc1`, the RP-LC retention time was determined as 670 s.
Molecule `CC1CN(CC(=O)N2CCN(c3ccccn3)CC2)c2ccccc2S1` (stereo unspecified) showed an RP-LC retention time of 683 s.
`Cc1ccc(S(=O)(=O)N2CCCN(C)c3ccccc32)cc1C` registered an RP-LC retention time of 603 s.
Regarding `CCN1C(=O)C2(CCN(S(=O)(=O)c3ccc(C)c(C)c3)CC2)c2ccccc21`, the RP-LC retention time was 1130 s.
Consider `CC(C)c1nc2c(N)cccn2n1`, for which the RP-LC retention time was found to be 613 s.
Next, `CCN1C(=O)CCC2(C(=O)Nc3ccc(C)cc3)CCCC=C12` (stereo unspecified): 781 s.
Take `CCOc1ccccc1NC(=O)N1CCN(c2ccc(=O)n(-c3ccc(F)cc3)n2)CC1`: the RP-LC retention time is 875 s.
Regarding `CCCCNC(=O)C1CCN(C(=O)Nc2ccc(NC(=O)NC3CCCC3)cc2)CC1`, the RP-LC retention time was found to be 684 s.
In turn, `COc1ccccc1-c1csc(-c2nnn(-c3ccc(Cl)cc3)c2N)n1` gave an RP-LC retention time of 1190 s.
`Cc1ccc(NC(=O)Cc2csc3nc(-c4ccc(C)c(C)c4)cn23)c(C)c1` returned an RP-LC retention time of 930 s.
In turn, `O=C(Cn1cccc1-c1nnc(C2CCC2)o1)Nc1cccc(Br)c1` displayed an RP-LC retention time of 974 s.
On to `Cc1ccc(-c2noc(Cn3cnc4c(cnn4-c4ccc(Br)cc4)c3=O)n2)cc1`, for which the RP-LC retention time is 1250 s.
`COc1ccc(-c2nnc(SCC(=O)N3CCC(C)CC3)o2)cc1` gave an RP-LC retention time of 914 s.
`CCCOc1ccc(CN2C[C@@H](CO)[C@H](N(C)C)C2)cc1OC` came in with an RP-LC retention time of 551 s.
`CCN1CCN(c2cc(C)c3cc(NC(=O)CC4CCCCC4)ccc3n2)CC1` displayed an RP-LC retention time of 594 s.
As for `O=S(=O)(c1cc(-c2nnc(C3CCC3)o2)co1)N1CCN(c2ccccn2)CC1`, the RP-LC retention time is 671 s.
In turn, `COc1cc2nc(SCC(=O)Nc3cc(C)[nH]n3)n3nc(C)nc3c2cc1OC` yielded an RP-LC retention time of 605 s.
With `CCn1c(-c2ccccc2)cc(C(N)=O)c1C`, the RP-LC retention time is 591 s.
`Cn1cnc2c(C(=O)Nc3ccc(Cl)cc3)nn(-c3ccccc3)c2c1=O` returned an RP-LC retention time of 954 s.
Next, `CCOC(=O)C1=C(N)Oc2c(c(=O)[nH]c3ccc(C)cc23)C1c1ccc(OC)cc1` (stereo unspecified): 881 s; `COc1ccc(-c2noc(-c3nc(-c4cccnc4)no3)n2)cc1OC`: 893 s; `Cc1ccc(CN2CCN(CC(=O)Nc3ccc4c(c3)OCCO4)C(=O)C2=O)cc1`: 733 s.
The molecule `Cc1ccc(NC(=O)N2CCN(C3=CC4=NC(C)CN4C=N3)CC2)c(C)c1` (stereo unspecified) registered an RP-LC retention time of 627 s.
The molecule `COCCNC(=O)c1cc2c(n(-c3ccc(C(C)C)cc3)c1=O)CCCC2=O` showed an RP-LC retention time of 872 s.
The same measure for `O=C(c1nc(Cn2nc(-c3ccc(F)cc3)ccc2=O)no1)N1CCCC1`: 900 s; for `Cc1ccc(C)c(N2CCN(S(=O)(=O)c3cc(-c4cc(C(F)(F)F)[nH]n4)sc3C)CC2)c1`: 1300 s; for `Cc1cc(C(=O)NOCCO)c(Nc2ccc(I)cc2F)n(C)c1=O`: 718 s.
The same measure for `Cc1nc(-c2ccccn2)cc2nn(CC(=O)NCC3CCCO3)c(=O)n12` (stereo unspecified): 604 s; for `CCc1nc(OCC(=O)NCc2ccc(C)cc2)c2ccccc2n1`: 798 s; for `Cc1cc(C)n(C(CC(=O)O)C(=O)O)n1` (stereo unspecified): 525 s.
With `O=C(NCC1CC1)c1c(-c2ccccc2)cc(=O)n2c1CCC2`, the RP-LC retention time is 660 s.
Take `CC(NC(=O)Cn1ncc2c(N3CCN(c4ccccn4)CC3)ncnc21)c1ccccc1` (stereo unspecified): the RP-LC retention time came out at 616 s.
`CCN1CCC(N(Cc2ccc3c(c2)OCO3)C(=O)Nc2cc(C)ccc2OC)CC1` gave an RP-LC retention time of 706 s.
The same measure for `CCOc1ccc(CC(=O)N2C[C@@H]3C[C@H]2C[C@@H]3NC(=O)c2cccs2)cc1`: 782 s.
`CC(C)n1nnc2cc(S(=O)(=O)N3CCCC(C(=O)N4CCN(c5ccccn5)CC4)C3)ccc21` (stereo unspecified) came in with an RP-LC retention time of 644 s.
The same measure for `Cc1cc(C)cc(C(=O)NC(c2ccccc2)c2nnc(N3CCCC3)o2)c1` (stereo unspecified): 868 s.
The molecule `COc1ccccc1N1CCN(c2cc(SCC(=O)NCc3ccco3)ncn2)CC1` yielded an RP-LC retention time of 777 s.
`COc1cccc(-n2nnc(C(=O)O)c2C(C)C)c1` displayed an RP-LC retention time of 734 s.
Next, `CCNc1cc(-n2cccn2)ncn1`: 666 s; `CCOC(=O)c1[nH]c(C)c(CCC(=O)N2CCC(C(=O)NCCN3CCCCC3)CC2)c1C`: 590 s.
With `COC(=O)c1cc(OCC(=O)Nc2ccc(OC)c(Cl)c2)c2cc(OC)ccc2n1`, the RP-LC retention time was found to be 867 s.
With `O=C(C1CC(=O)N(C2CCCCC2)C1)N1CCCCCC1` (stereo unspecified), the RP-LC retention time is 763 s.
In the case of `CCc1ccc(-n2nc(N3CCCC(C(=O)NCc4ccc(OC)cc4OC)C3)ccc2=O)cc1` (stereo unspecified), the RP-LC retention time amounted to 872 s.
Next, `COC(=O)C1=C(C)N(C(C)C)C(=O)C1(NC(=O)c1cccc(OC)c1)C(F)(F)F` (stereo unspecified): 917 s.
`O=C(Nc1ccc(F)cc1)C1CCCN(c2ccc(=O)n(-c3ccc(F)cc3)n2)C1` (stereo unspecified) returned an RP-LC retention time of 849 s.
Take `CCCCOc1ccc(C(=O)N2CCCC2c2nc(-c3ccc(OC)c(OC)c3)no2)cc1` (stereo unspecified): the RP-LC retention time worked out at 1110 s.
Next, `O=C1CN(Cc2ccccc2)C(=O)C(Cc2ccccc2)N1` (stereo unspecified): 656 s; `COC(=O)C1=C(N)Oc2cc(C)n(CCN(C)C)c(=O)c2C1c1ccccc1Cl` (stereo unspecified): 624 s.
The same measure for `CCC1CCCCN1CCCNC(=O)Cn1c(=O)c2cccn2c2ccc(F)cc21` (stereo unspecified): 641 s; for `CCOc1ccc2nc(C(=O)NC3CCCCCC3)cn2n1`: 982 s.
In turn, `Cc1ccccc1CNC(=O)C1(C)CCN(S(=O)(=O)c2ccc(Br)cc2)CC1` returned an RP-LC retention time of 1030 s.
The molecule `COc1cc(OC)cc(C(=O)N2CCN=C2N2CCCCC2)c1` registered an RP-LC retention time of 646 s.
The molecule `COc1ccc(S(=O)(=O)N2CCCC(C(=O)Nc3ccc4c(c3)OCO4)C2)cc1OC` (stereo unspecified) showed an RP-LC retention time of 838 s.
In the case of `Cc1noc(C2CN(C(=O)Nc3ccc(C)c(Cl)c3)CC23CCOCC3)n1` (stereo unspecified), the RP-LC retention time was 816 s.
